{"source": "patent US20160108039A1", "about": "“TRIAZOLOPYRIDINES AS THROMBIN INHIBITORS FOR THE TREATMENT OF THROMBOEMBOLIC DISEASES” (BAYER PHARMA AKTIENGESELLSCHAFT, priority 2013, published 2016)", "key": {"thrombin [1]": {"biological_target": "T1, thrombin (Homo sapiens, UniProt P00734)", "assay": "Measurement of the thrombin inhibition in buffer", "type": "biochemical", "settings": "human thrombin 0.06 nmol/l in Tris buffer pH 7.4, 22° C., substrate Boc-Asp(OBzl)-Pro-Arg-AMC; in some cases means of individual determinations", "description": "To determine the thrombin inhibition of the substances listed above, a biochemical test system is constructed in which the conversion of a thrombin substrate is used for determining the enzymatic activity of human thrombin. Here, thrombin cleaves aminomethylcoumarin, which is measured fluorescently, from the peptic substrate. The determinations are carried out in microtitre plates.\nSubstances to be tested are dissolved in various concentrations in dimethyl sulphoxide and incubated for 15 min with human thrombin (0.06 nmol/l dissolved in 50 mmol/l of Tris buffer [C,C,C-tris(hydroxymethyl)aminomethane], 100 mmol/l of sodium chloride, 0.1% BSA [bovine serum albumin], pH 7.4) at 22° C. The substrate (5 μmol/l Boc-Asp(OBzl)-Pro-Arg-AMC from Bachem) is then added. After 30 min of incubation, the sample is excited at a wavelength of 360 nm and the emission is measured at 460 nm. The measured emissions of the test mixtures with test substance are compared to the control mixtures without test substance (only dimethyl sulphoxide instead of test substance in dimethyl sulphoxide) and IC50 values are calculated from the concentration/activity relationships. Representative activity data from this test are given in Table 1 below (in some cases as means of individual determinations): […]"}, "thrombin [2]": {"biological_target": "T1, thrombin", "assay": "Thrombin-inhibitory activity in plasma samples (ecarin-activated)", "type": "biochemical", "settings": "citrate plasma, ecarin activation, fluorogenic thrombin substrate; read at about 70% of maximum signal (about 12 min); in some cases means", "description": "To determine the inhibition of thrombin in plasma samples, plasma prothrombinase is activated by ecarin. Thrombin activity and/or its inhibition by potential inhibitors is/are then measured fluorescently by addition of a substrate.\nThe substances to be tested are dissolved in various concentrations in dimethyl sulphoxide and diluted with water. In white 96-well flat-bottomed plates, 20 μl of substance dilution are mixed with 20 μl of ecarin solution (ecarin reagent, from Sigma E-0504, final concentration 20 mU per reaction) in Ca buffer (200 mM Hepes+560 mM sodium chloride+10 mM calcium chloride+0.4% PEG) or with 20 μl of Ca buffer (as unstimulated control). Furthermore, 20 μl of fluorogenic thrombin substrate (from Bachem 1-1120, final concentration 50 μmol/l) and 20 μl of citrate plasma (from Octapharma) are added, and the mixture is homogenized well. The plate is measured in a SpectraFluorplus Reader using a 360 nm excitation filter and a 465 nm emission filter every minute over 20 minutes. […] Representative activity data from this test are given in Table 2 below (in some cases as means of individual determinations): […]"}}, "note": "pIC50: −log10 of the molar value."}
{"compound": "COc1cc(C(=O)N2CC(C)(CC(C)O)OCC2(C)C)cn2nc(NCc3cccc(Cl)c3)nc12", "note": "(single isomer, unassigned) [Example 39, {2-[(3-Chlorobenzyl)amino]-8-methoxy[1,2,4]triazolo[1,5-a]pyridin-6-yl}[2-(2-hydroxypropyl)-2,5,5-trimethylmorpholin-4-yl]methanone]", "values": [{"measurement": "pIC50", "setting": "thrombin [1]", "result": 7.52}, {"measurement": "pIC50", "setting": "thrombin [2]", "result": 7.47}]}
{"compound": "COc1cc(C(=O)N2CC(C)OCC2C(C)(C)O)cn2nc(NCc3cccc(Cl)c3)nc12", "note": "(single isomer, unassigned) [Example 40, {2-[(3-Chlorobenzyl)amino]-8-methoxy[1,2,4]triazolo[1,5-a]pyridin-6-yl}[5-(2-hydroxypropan-2-yl)-2-methylmorpholin-4-yl]methanone]", "values": [{"measurement": "pIC50", "setting": "thrombin [1]", "result": 7.51}, {"measurement": "pIC50", "setting": "thrombin [2]", "result": 7.12}]}
{"compound": "COc1cc(C(=O)N2CC(C)(CC(C)O)OC[C@H]2C)cn2nc(NCc3cccc(Cl)c3)nc12", "note": "(single isomer, unassigned) [Example 41]", "values": [{"measurement": "pIC50", "setting": "thrombin [1]", "result": 8.89}, {"measurement": "pIC50", "setting": "thrombin [2]", "result": 8.39}]}
{"compound": "COc1cc(C(=O)N2CC(C)(C)OCC2CC(C)O)cn2nc(NCc3cccc(Cl)c3)nc12", "note": "(single isomer, unassigned) [Example 49, {2-[(3-Chlorobenzyl)amino]-8-methoxy[1,2,4]triazolo[1,5-a]pyridin-6-yl}[5-(2-hydroxypropyl)-2,2-dimethylmorpholin-4-yl]methanone]", "values": [{"measurement": "pIC50", "setting": "thrombin [1]", "result": 7.72}, {"measurement": "pIC50", "setting": "thrombin [2]", "result": 7.62}]}
{"compound": "COc1cc(C(=O)N2CC(C)(CCO)OCC2CF)cn2nc(NCc3cccc(Cl)c3)nc12", "note": "(single isomer, unassigned) [Example 53, {2-[(3-Chlorobenzyl)amino]-8-methoxy[1,2,4]triazolo[1,5-a]pyridin-6-yl}[5-(fluoromethyl)-2-(2-hydroxyethyl)-2-methylmorpholin-4-yl]methanone]", "values": [{"measurement": "pIC50", "setting": "thrombin [1]", "result": 8.16}, {"measurement": "pIC50", "setting": "thrombin [2]", "result": 7.62}]}
{"compound": "COc1cc(C(=O)N2CC(C)(CCO)OCC2CF)cn2nc(NCc3cccc(Cl)c3)nc12", "note": "(single isomer, unassigned) [Example 54, {2-[(3-Chlorobenzyl)amino]-8-methoxy[1,2,4]triazolo[1,5-a]pyridin-6-yl}[5-(fluoromethyl)-2-(2-hydroxyethyl)-2-methylmorpholin-4-yl]methanone]", "values": [{"measurement": "pIC50", "setting": "thrombin [1]", "result": 7.00}, {"measurement": "pIC50", "setting": "thrombin [2]", "result": 6.21}]}
{"compound": "COc1cc(C(=O)N2CC(C)(CCO)OCC2C(F)F)cn2nc(NCc3cccc(Cl)c3)nc12", "note": "(single isomer, unassigned) [Example 55, {[(3-Chlorobenzyl)amino]-8-methoxy[1,2,4]triazolo[1,5-a]pyridin-6-yl}[5-(difluoromethyl)-2-(2-hydroxyethyl)-2-methylmorpholin-4-yl]methanone]", "values": [{"measurement": "pIC50", "setting": "thrombin [1]", "result": 8.02}, {"measurement": "pIC50", "setting": "thrombin [2]", "result": 7.19}]}
{"compound": "COc1cc(C(=O)N2CC(C)(CC(C)O)OCC2CF)cn2nc(NCc3cccc(Cl)c3)nc12", "note": "(single isomer, unassigned) [Example 56, {[(3-Chlorobenzyl)amino]-8-methoxy[1,2,4]triazolo[1,5-a]pyridin-6-yl}[5-(fluoromethyl)-2-(2-hydroxypropyl)-2-methylmorpholin-4-yl]methanone]", "values": [{"measurement": "pIC50", "setting": "thrombin [1]", "result": 8.89}, {"measurement": "pIC50", "setting": "thrombin [2]", "result": 8.23}]}
{"compound": "CCC1C(=O)N2CCC2CN1C(=O)c1cc(OC)c2nc(NCc3cccc(Cl)c3)nn2c1", "note": "(single isomer, unassigned) [Example 59, 4-({2-[(3-Chlorobenzyl)amino]-8-methoxy[1,2,4]triazolo[1,5-a]pyridin-6-yl}carbonyl)-3-ethyl-1,4-diazabicyclo[4.2.0]octan-2-one]", "values": [{"measurement": "pIC50", "setting": "thrombin [1]", "result": 8.08}, {"measurement": "pIC50", "setting": "thrombin [2]", "result": 7.96}]}
{"compound": "COCC1C(=O)N2CCC2CN1C(=O)c1cc(OC)c2nc(NCc3cccc(Cl)c3)nn2c1", "note": "(single isomer, unassigned) [Example 60, 4-({2-[(3-Chlorobenzyl)amino]-8-methoxy[1,2,4]triazolo[1,5-a]pyridin-6-yl}carbonyl)-3-(methoxymethyl)-1,4-diazabicyclo[4.2.0]octan-2-one]", "values": [{"measurement": "pIC50", "setting": "thrombin [1]", "result": 7.59}, {"measurement": "pIC50", "setting": "thrombin [2]", "result": 7.64}]}
